The EC50 is the midpoint of the concentration-response curve.

For 45 compounds, EC50 results are on record in patent US11124494B2, “Aryl heterocyclic piperidinone formyl peptide 2 receptor and formyl peptide 1 receptor agonists” (Bristol-Myers Squibb Company, priority 2017, dated 2021).

Chain of human FPR2 receptors (P25090 whole entry): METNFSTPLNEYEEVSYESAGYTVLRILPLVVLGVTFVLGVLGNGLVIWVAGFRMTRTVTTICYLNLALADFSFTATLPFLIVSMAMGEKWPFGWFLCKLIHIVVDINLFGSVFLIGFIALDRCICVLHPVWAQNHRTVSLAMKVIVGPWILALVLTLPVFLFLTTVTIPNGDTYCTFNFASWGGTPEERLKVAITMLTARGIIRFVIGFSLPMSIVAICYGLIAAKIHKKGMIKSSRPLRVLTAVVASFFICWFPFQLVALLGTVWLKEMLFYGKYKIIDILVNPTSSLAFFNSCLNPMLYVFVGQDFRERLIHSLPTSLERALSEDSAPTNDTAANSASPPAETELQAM

The target in the assay is human FPR2 receptors (Homo sapiens (Human), UniProt P25090). Kind of assay: FPR2 cyclic adenosine monophosphate (cAMP) assay. The format is cell-based. The conditions noted are these: hFPR2 Assay, CHO cells overexpressing human FPR2; potency bins; read-out: hFPR2 agonist activity EC50 values. The method, then:
FPR2 and FPR1 Cyclic Adenosine Monophosphate (cAMP) Assays. A mixture of forskolin (5 μM final for FPR2 or 10 μM final for FPR1) and IBMX (200 μM final) were added to 384-well Proxiplates (Perkin-Elmer) pre-dotted with test compounds in DMSO (1% final) at final concentrations in the range of 1.7 nM to 100 μM. Chinese Hamster Ovary cells (CHO) overexpressing human FPR1 or human FPR2 receptors were cultured in F-12 (Ham's) medium supplemented with 10% qualified FBS, 250 μg/ml zeocin and 300 μg/ml hygromycin (Life Technologies). Reactions were initiated by adding 2,000 human FPR2 cells per well or 4,000 human FPR1 cells per well in Dulbecco's PBS (with calcium and magnesium) (Life Technologies) supplemented with 0.1% BSA (Perkin-Elmer). The reaction mixtures were incubated for 30 min at room temperature. The level of intracellular cAMP was determined using the HTRF HiRange cAMP assay reagent kit (Cisbio) according to manufacturer's instruction. Solutions of cryptate conjugated anti-cAMP and d2 flurorophore-labelled cAMP were made in a supplied lysis buffer separately. Upon completion of the reaction, the cells were lysed with equal volume of the d2-cAMP solution and anti-cAMP solution. After a 1-h room temperature incubation, time-resolved fluorescence intensity was measured using the Envision (Perkin-Elmer) at 400 nm excitation and dual emission at 590 nm and 665 nm. A calibration curve was constructed with an external cAMP standard at concentrations ranging from 1 μM to 0.1 pM by plotting the fluorescent intensity ratio from 665 nm emission to the intensity from the 590 nm emission against cAMP concentrations. The potency and activity of a compound to inhibit cAMP production was then determined by fitting to a 4-parametric logistic equation from a plot of cAMP level versus compound concentrations.
For `CS(=O)(=O)NCC1(c2ccc(N3CCC[C@H](NC(=O)Nc4ccc(C(F)(F)F)cc4)C3=O)cc2F)CC1` [Example 15], the EC50 was in the range of 10 to 100 nM.
In the case of `O=C(Nc1ccc(C(F)(F)F)nc1)N[C@@H]1CCCN(c2ccc(C3(CN4CCCC4)CC3)cc2)C1=O` [Example 66, (R)-1-(2-oxo-1-(4-(1-(pyrrolidin-1-ylmethyl)cyclopropyl)phenyl)piperidin-3-yl)-3-(6-(trifluoromethyl)pyridin-3-yl)urea] it was 100 to 1250 nM; in that of `CS(=O)(=O)NCC1(c2ccc(N3CCC[C@@H](NC(=O)Nc4ncc(Cl)cc4Cl)C3=O)cc2F)CC1` [Example 22], 100 to 1250 nM.
`COc1cnc(NC(=O)N[C@H]2CCCN(c3ccc(C4(CNS(C)(=O)=O)CC4)cc3)C2=O)cn1` [Example 11]: the EC50 lay within 100 to 1250 nM.
In the case of `CS(=O)(=O)NCC1(c2ccc(N3CCC[C@@H](NC(=O)Nc4ncc(Cl)cc4Cl)C3=O)cc2)CCC1` [Example 13] it was 10 to 100 nM.
Consider `CS(=O)(=O)NCC1(c2ccc(N3CCC[C@@H](NC(=O)Nc4cnc(Cl)cn4)C3=O)cc2F)CC1` [Example 19], for which the EC50 is at most 10 nM.
Next, `CS(=O)(=O)NCC1(c2ccc(N3CCC[C@@H](NC(=O)Nc4ccc(OC(F)F)nc4)C3=O)cc2F)CC1` [Example 21]: 10 to 100 nM; `CS(=O)(=O)NCC1(c2ccc(N3CCC[C@@H](NC(=O)Nc4ncc(C(F)(F)F)cn4)C3=O)cc2)CC1` [Example 16]: 10 to 100 nM; `Cc1cnc(NC(=O)N[C@@H]2CCCN(c3ccc(C4(CNS(C)(=O)=O)CCC4)cc3)C2=O)cn1` [Example 8]: at most 10 nM.
Take `CS(=O)(=O)NCC1(c2ccc(N3CCC[C@@H](NC(=O)Nc4ncc(Cl)cc4F)C3=O)cc2)CC1` [Example 39]: the EC50 is at most 10 nM.
Next, `Cc1cnc(NC(=O)N[C@@H]2CCCN(c3ccc(C4(CNS(C)(=O)=O)CC4)cc3)C2=O)cn1` [Example 25]: at most 10 nM.
Regarding `COc1cnc(NC(=O)N[C@@H]2CCCN(c3ccc(C4(CNS(C)(=O)=O)CC4)cc3)C2=O)cn1` [Example 9], the EC50 is at most 10 nM.
Next, `CS(=O)(=O)NCC1(c2ccc(N3CCC[C@@H](NC(=O)Nc4ccc(C(F)(F)F)nc4)C3=O)cc2)CC1` [Example 33]: at most 10 nM.
For the compound `CN(C)CC1(c2ccc(N3CCC[C@@H](NC(=O)Nc4ccc(C(F)(F)F)nc4)C3=O)cc2)CC1` [Example 67, (R)-1-(1-(4-(1-((dimethylamino)methyl)cyclopropyl)phenyl)-2-oxopiperidin-3-yl)-3-(6-(trifluoromethyl)pyridin-3-yl)urea], the EC50 is 100 to 1250 nM.
In the case of `CS(=O)(=O)NCC1(c2ccc(N3CCC[C@H](NC(=O)Nc4ccc(C(F)(F)F)cn4)C3=O)cc2)CC1` [Example 47] it was 100 to 1250 nM; in that of `O=C(Nc1ccc(C(F)(F)F)nc1)N[C@@H]1CCCN(c2ccc(C3(CO)CC3)cc2)C1=O` [Example 3], 100 to 1250 nM.
In the case of `CS(=O)(=O)NCC1(c2ccc(N3CCC[C@@H](NC(=O)Nc4ccc(C(F)(F)F)cn4)C3=O)cc2)CCCC1` [Example 29] it was 10 to 100 nM.
In the case of `O=C(Nc1ccc(C(F)(F)F)cn1)N[C@@H]1CCCN(c2ccc(C3(CN4CCCC4)CCC3)cc2)C1=O` [Example 59, (R)-1-(2-oxo-1-(4-(1-(pyrrolidin-1-ylmethyl)cyclobutyl)phenyl)piperidin-3-yl)-3-(5-(trifluoromethyl)pyridin-2-yl)urea] it was 100 to 1250 nM; in that of `O=C(Nc1ccc(C(F)(F)F)nc1)N[C@@H]1CCCN(c2ccc(C3(CN4CCOCC4)CCCC3)cc2)C1=O` [Example 61, (R)-1-(1-(4-(1-(morpholinomethyl)cyclopentyl)phenyl)-2-oxopiperidin-3-yl)-3-(6-(trifluoromethyl)pyridin-3-yl)urea], 100 to 1250 nM; in that of `CS(=O)(=O)NCC1(c2ccc(N3CCC[C@@H](NC(=O)Nc4ncc(Cl)cc4Cl)C3=O)cc2)CC1` [Example 35], 100 to 1250 nM.
For `CS(=O)(=O)NCC1(c2ccc(N3CCC[C@H](NC(=O)Nc4cnc(Cl)cn4)C3=O)cc2)CCC1` [Example 12], the concentration for a half-maximal effect (EC50) is at most 10 nM.
For the compound `CS(=O)(=O)NCC1(c2ccc(N3CCC[C@@H](NC(=O)Nc4ccc(C(F)(F)F)cn4)C3=O)cc2F)CC1` [Example 26], the EC50 lay in the range of 10 to 100 nM.
Take `N#CC1(c2ccc(N3CCC[C@H](NC(=O)Nc4ccc(C(F)(F)F)cc4)C3=O)cc2)CC1` [Example 48]: the EC50 lay in the range of 100 to 1250 nM.
In the case of `O=C(Nc1ccc(C(F)(F)F)nc1)N[C@@H]1CCCN(c2ccc(C3(CN4CCCC4)CCC3)cc2)C1=O` [Example 56, (R)-1-(2-oxo-1-(4-(1-(pyrrolidin-1-ylmethyl)cyclobutyl)phenyl)piperidin-3-yl)-3-(6-(trifluoromethyl)pyridin-3-yl)urea] it was 100 to 1250 nM; in that of `O=C(Nc1ccc(C(F)(F)F)nc1)N[C@@H]1CCCN(c2ccc(C3(CN4CCOCC4)CC3)cc2)C1=O` [Example 64, (R)-1-(1-(4-(1-(morpholinomethyl)cyclopropyl)phenyl)-2-oxopiperidin-3-yl)-3-(6-(trifluoromethyl)pyridin-3-yl)urea], 10 to 100 nM.
In the case of `CS(=O)(=O)NCC1(c2ccc(N3CCC[C@@H](NC(=O)Nc4cnc(C#N)cn4)C3=O)cc2)CC1` [Example 37] it was 10 to 100 nM.
As for `O=C(Nc1ccc(C(F)(F)F)cn1)N[C@@H]1CCCN(c2ccc(C3(CN4CCOCC4)CCCC3)cc2)C1=O` [Example 65, (R)-1-(1-(4-(1-(morpholinomethyl)cyclopentyl)phenyl)-2-oxopiperidin-3-yl)-3-(5-(trifluoromethyl)pyridin-2-yl)urea], the EC50 is 100 to 1250 nM.
On to `CS(=O)(=O)NCC1(c2ccc(N3CCC[C@H](NC(=O)Nc4ccc(C(F)(F)F)nc4)C3=O)cc2)CC1` [Example 45], for which the EC50 was in the range of 100 to 1250 nM.
Take `CS(=O)(=O)NCC1(c2ccc(N3CCC[C@@H](NC(=O)Nc4ccc(Cl)cn4)C3=O)cc2)CC1` [Example 23]: the EC50 is at most 10 nM.
In the case of `CS(=O)(=O)NCC1(c2ccc(N3CCC[C@@H](NC(=O)Nc4ncc(C(F)(F)F)cc4F)C3=O)cc2F)CC1` [Example 17] it was 10 to 100 nM.
Next, `N#CC1(c2ccc(N3CCC[C@@H](NC(=O)Nc4ccc(C(F)(F)F)cc4)C3=O)cc2)CC1` [Example 49]: at most 10 nM; `CS(=O)(=O)NCC1(c2ccc(N3CCC[C@@H](NC(=O)Nc4ccc(OC(F)F)nc4)C3=O)cc2)CC1` [Example 38]: 100 to 1250 nM.
In the case of `CS(=O)(=O)NCC1(c2ccc(N3CCC[C@H](NC(=O)Nc4ccc(C(F)(F)F)cc4)C3=O)cc2)CC1` [Example 43] it was 10 to 100 nM; in that of `CS(=O)(=O)NCC1(c2ccc(N3CCC[C@@H](NC(=O)Nc4ncc(C(F)(F)F)cc4F)C3=O)cc2)CC1` [Example 40], 10 to 100 nM.
Regarding `CS(=O)(=O)NCC1(c2ccc(N3CCC[C@@H](NC(=O)Nc4ccc(OC(F)F)nc4)C3=O)cc2)CC1` [Example 36], the EC50 was at most 10 nM.
Turning to `CS(=O)(=O)NCC1(c2ccc(N3CCC[C@H](NC(=O)Nc4ccc(C(F)(F)F)nc4)C3=O)cc2)CCCC1` [Example 32], the EC50 was in the range of 100 to 1250 nM.
For the compound `COc1cnc(NC(=O)N[C@@H]2CCCN(c3ccc(C4(CNS(C)(=O)=O)CC4)cc3)C2=O)c(F)c1` [Example 34], the EC50 is 10 to 100 nM.
In the case of `O=C(Nc1ccc(C(F)(F)F)cn1)N[C@@H]1CCCN(c2ccc(C3(CN4CCOCC4)CCC3)cc2)C1=O` [Example 63, (R)-1-(1-(4-(1-(morpholinomethyl)cyclobutyl)phenyl)-2-oxopiperidin-3-yl)-3-(5-(trifluoromethyl)pyridin-2-yl)urea] it was 10 to 100 nM; in that of `O=C(Nc1ccc(Cl)cc1)N[C@@H]1CCCN(c2ccc(C3CCOCC3)cc2)C1=O` [Example 50], at most 10 nM.
Next, `CS(=O)(=O)NCC1(c2ccc(N3CCC[C@@H](NC(=O)Nc4ccc(C(F)(F)F)nc4)C3=O)cc2F)CC1` [Example 2]: at most 10 nM.
Consider `COc1cnc(NC(=O)N[C@@H]2CCCN(c3ccc(C4(CNS(C)(=O)=O)CCC4)cc3)C2=O)cn1` [Example 7], for which the EC50 was at most 10 nM.
Next, `CS(=O)(=O)NCC1(c2ccc(N3CCC[C@@H](NC(=O)Nc4ccc(C(F)(F)F)cn4)C3=O)cc2)CC1` [Example 46]: at most 10 nM; `O=C(Nc1ccc(C(F)(F)F)cn1)N[C@@H]1CCCN(c2ccc(C3(CN4CCCC4)CCCC3)cc2)C1=O` [Example 60, (R)-1-(2-oxo-1-(4-(1-(pyrrolidin-1-ylmethyl)cyclopentyl)phenyl)piperidin-3-yl)-3-(5-(trifluoromethyl)pyridin-2-yl)urea]: 100 to 1250 nM.
Regarding `CS(=O)(=O)NCC1(c2ccc(N3CCC[C@@H](NC(=O)Nc4ccc(C(F)(F)F)cn4)C3=O)c(F)c2)CC1` [Example 4], the EC50 lay in the range of 10 to 100 nM.
On to `CS(=O)(=O)NCC1(c2ccc(N3C[C@H](O)C[C@@H](NC(=O)Nc4ncc(C(F)(F)F)cc4F)C3=O)cc2)CC1` [Example 68, N-((1-(4-((3R,5R)-3-(3-(3-Fluoro-5-(trifluoromethyl)pyridin-2-yl)ureido)-5-hydroxy-2-oxopiperidin-1-yl)phenyl)cyclopropyl)methyl)methanesulfonamide], for which the EC50 was 10 to 100 nM.
